Data: ChEMBL document CHEMBL3507680, “University of Dundee, Gates Library screen for HepG2 cell viability”

experiment: Human HepG2 cell viability assay in 384 well format; type: toxicity, cell-based; design: dose 125 nL, time 70.5 hour; concentration not given beside the values; details: HepG2 cells, read-out: Inhibition

Compared with CCNc1ncc(C(=O)NCCc2csc(-c3ncccn3)n2)cn1, c1ccc(CN2CC[C@@H]3[C@@H](CO[C@@H]3CNc3ncccn3)C2)nc1 is lower in cytotoxicity at 70.5 h: 5.7% for the first, -7.29% for the second.

Going from CC(C)(C)c1nnc(CN2CCn3c(nnc3C3CC3)C2)o1 to O=C(c1ccncc1)N1CCCn2c(CN3CCCC3)nnc2C1, the cytotoxicity at 70.5 h falls from -0.488% to -9.38%.

Compared with CNc1nc(N2CCN(CC=C(C)C)C(CCO)C2)nc2c1CCC2 (configuration not stated), c1nc2c(c(NC3CCc4ncnn4C3)n1)CCC2 (configuration not stated) is lower in cytotoxicity at 70.5 h: 6.77% for the first, -8.75% for the second.

Compared with COC(=O)CNC(=O)CSCc1nc(O)c2cc(C)sc2n1, COc1ccccc1OCCCN(C)c1cc(C)nc(N)n1 is lower in cytotoxicity at 70.5 h: 4.84% for the first, -4.86% for the second.

First: CC(C)C(=O)N1CCN(CCOc2cccc(C#N)c2)CC1
Second: CC(C(=O)N1CCN(Cc2ccc(C#N)cc2)CC1)n1ccnc1 (configuration not stated)
The cytotoxicity at 70.5 h of the first is lower: -5.29% for the first, -0.223% for the second.

Going from CCn1c(=O)c2cc(S(N)(=O)=O)ccc2n(CC)c1=O to COc1c(NS(=O)(=O)c2ccc(C)c(C)c2)c(C)nn1C, the cytotoxicity at 70.5 h rises from -2.07% to 2.79%.

Going from CN(Cc1ccc([S+](C)[O-])cc1)c1cncc(Br)c1 (configuration not stated) to COCc1ccc(CNCc2c(C)nn(C)c2N(C)C)cc1, the cytotoxicity at 70.5 h rises from -23.7% to 24.1%.

Going from O=C(CCc1nc(-c2ccccc2)no1)N[C@H]1COC[C@@H]1N1CCCC1 to c1ccc(-c2cc(NCCCC3CCOC3)n3nccc3n2)cc1 (configuration not stated), the cytotoxicity at 70.5 h rises from -9.03% to -0.688%.

Going from CC(C)CC(NCc1cccs1)c1ccccn1 (configuration not stated) to CC(NCc1cnc(C2CCC2)s1)c1cccc(-n2cccn2)c1 (configuration not stated), the cytotoxicity at 70.5 h rises from -13.2% to 16.3%.

First: COC(=O)c1sccc1S(=O)(=O)NCC1(O)CCOc2ccccc21 (configuration not stated)
Second: COc1ccccc1C1(CNc2cn[nH]c(=O)c2Cl)CC1
The cytotoxicity at 70.5 h of the first is higher: -4.94% for the first, -12.7% for the second.

First: Cc1nc(C)n(CC2CN(c3ccc(C#N)cn3)CCO2)n1 (configuration not stated)
Second: Cc1cc(N2CCCCC2Cn2nc(C)cc2C)n2ncnc2n1 (configuration not stated)
The cytotoxicity at 70.5 h of the first is higher: -4.17% for the first, -4.18% for the second.

Going from Cc1cc(C)n(C2CN(Cc3ccccn3)C2)n1 to Cc1ccc(CN2C[C@H]3OC(=O)N(Cc4ccccn4)[C@H]3C2)o1, the cytotoxicity at 70.5 h rises from -9.82% to 2.3%.

Going from CNC(=O)c1cccc(CNC2CCSc3c(Cl)cccc32)c1 (configuration not stated) to O=C(c1cccc(CNCC2CNc3ccnn3C2)c1)N1CCCC1 (configuration not stated), the cytotoxicity at 70.5 h falls from 35.4% to 16.7%.

Compared with CNC(=O)C1CCN(c2nc3nc[nH]c(=O)c3s2)CC1, CC1CCN(c2ccc(=O)n(CC(=O)N(C)Cc3ccccc3)n2)CC1 is higher in cytotoxicity at 70.5 h: -16.7% for the first, 16.3% for the second.

Going from COCCc1noc(CNC2CCSC2)n1 (configuration not stated) to O=c1ccc2c(n1Cc1cccnc1)CCC(NCc1cccnc1)C2 (configuration not stated), the cytotoxicity at 70.5 h rises from -10.2% to -0.912%.

First: FC(F)(F)c1ccc(-c2c[nH]c([C@@H]3COCCN3)n2)cc1
Second: NC1CCc2nc(-c3cccnc3)nc(Nc3ccc(F)cc3)c2C1 (configuration not stated)
The cytotoxicity at 70.5 h of the first is lower: -16% for the first, 3.41% for the second.

Going from CN(C)c1cc(C(=O)N2CCN(c3cc(C#N)ccn3)CC2)ccn1 to Cc1cccc2cc(C(=O)N3CCN(S(=O)(=O)N(C)C)CC3)n(C)c12, the cytotoxicity at 70.5 h rises from -16.5% to 1.01%.

Going from Cc1cc(CN2CCCC2c2noc(C3CC3)n2)c2ccccc2n1 (configuration not stated) to N[C@H]1CC[C@@H](n2cc(C(=O)N[C@H]3CCCc4ccccc43)nn2)CC1, the cytotoxicity at 70.5 h falls from 51.7% to -10.4%.

Going from O=c1c2cccnc2cnn1CC(O)c1ccc(F)c(F)c1 (configuration not stated) to CNCc1cc(F)ccc1Oc1ccc(F)cc1F, the cytotoxicity at 70.5 h rises from -6.63% to -0.802%.

Compared with Cn1cc(CNCCn2cccn2)c(-c2cccnc2)n1, CS(=O)(=O)NCCc1cccc2cccnc12 is higher in cytotoxicity at 70.5 h: -4.81% for the first, 25.3% for the second.

Compared with CN1CCN(C)C2(CCN(C(=O)CC(F)(F)F)CC2)C1=O, CCN1CCC2(CN(C(C)=O)CC23CCN(C(=O)N(C)C)CC3)C1=O (configuration not stated) is lower in cytotoxicity at 70.5 h: 0.213% for the first, -9.48% for the second.

First: CC(C)(CN)NS(=O)(=O)c1c(F)cccc1F
Second: Cc1cccc(C(=O)N2CCN(S(C)(=O)=O)[C@@H](C)C2)c1C
The cytotoxicity at 70.5 h of the first is higher: 2.67% for the first, -0.781% for the second.

Compared with CC(C)C(=O)N1CCCc2c(cnn2-c2ccccc2)C1, CC(CCc1ccccc1)N1CCC(C(=O)NCc2ccccc2)CC1 (configuration not stated) is higher in cytotoxicity at 70.5 h: -5.24% for the first, 0.455% for the second.

Going from COCCC(=O)N1CCOCC2(CCN(Cc3cccs3)C2)C1 (configuration not stated) to Cn1ccnc1CN1CCC2(COCCN(S(=O)(=O)C3CC3)C2)C1 (configuration not stated), the cytotoxicity at 70.5 h rises from -12.3% to -10.6%.

Going from CCN1CC(O)CN(C(=O)c2ccc(SC)cc2)CC1=O (configuration not stated) to Cc1occc1C(=O)N1C[C@@H]2CCCO[C@@H]2[C@H](N(C)Cc2ccco2)C1, the cytotoxicity at 70.5 h rises from -4.25% to -0.88%.

Compared with CCCNC(=O)c1cc2c([nH]c1=O)CC(c1cccs1)CC2=O (configuration not stated), CCN(CC)C[C@H]1CN2CC[C@H]1C[C@@H]2CNC(=O)Nc1ccsc1 is higher in cytotoxicity at 70.5 h: -19.4% for the first, -8.02% for the second.

Compared with CCn1cc(S(=O)(=O)N2CCCCCC2c2cc(C)no2)cn1 (configuration not stated), Cc1cc(C(=O)N(C)C(C)CC(C)C)on1 (configuration not stated) is lower in cytotoxicity at 70.5 h: 0.308% for the first, -1.57% for the second.

Going from O=C(NC1CCN(c2ncccn2)CC1)c1cccc(-n2ccnc2)c1 to CC(Cc1ccccn1)N(C)C(=O)c1ncc[nH]1 (configuration not stated), the cytotoxicity at 70.5 h falls from -7.96% to -8.42%.

Compound CC(C)c1ccc(S(=O)(=O)Cc2nc(N)nc(N(C)C)n2)cc1 has a cytotoxicity at 70.5 h of -1.91%.
